Laboratory results from the supplement of paper PMC13380429.
± gives the standard deviation of the averaged measurements.

What was measured:
Details in all cases: 72 h
Calu-3 [1] = experiment: relative viability EC50 (midpoint between 100% and the lowest measured viability); higher = less toxic
Vero E6 [2] = experiment: as above
U2OS [3] = experiment: as above
Caco-2 [4] = experiment: as above
HepG2 [5] = experiment: as above
Calu-3 [6] = experiment: drug sensitivity score (DSS) for viability; higher = more toxic; extreme values may be limits of the assay
Vero E6 [7] = experiment: as above
U2OS [8] = experiment: as above
Caco-2 [9] = experiment: as above
HepG2 [10] = experiment: as above
Calu-3 [11] = experiment: cell viability relative to DMSO; higher = less toxic
Vero E6 [12] = experiment: as above
U2OS [13] = experiment: as above
Caco-2 [14] = experiment: as above
HepG2 [15] = experiment: as above

SMILES | relative viability EC50 (Calu-3 [1]) [µM] | relative viability EC50 (Vero E6 [2]) [µM] | relative viability EC50 (U2OS [3]) [µM] | relative viability EC50 (Caco-2 [4]) [µM] | relative viability EC50 (HepG2 [5]) [µM] | drug sensitivity score (Calu-3 [6]) | drug sensitivity score (Vero E6 [7]) | drug sensitivity score (U2OS [8]) | drug sensitivity score (Caco-2 [9]) | drug sensitivity score (HepG2 [10]) | cell viability (Calu-3 [11]; 1 nM) [%] | cell viability (Calu-3 [11]; 10 nM) [%] | cell viability (Calu-3 [11]; 100 nM) [%] | cell viability (Calu-3 [11]; 1000 nM) [%] | cell viability (Calu-3 [11]; 10000 nM) [%] | cell viability (Vero E6 [12]; 1 nM) [%] | cell viability (Vero E6 [12]; 10 nM) [%] | cell viability (Vero E6 [12]; 100 nM) [%] | cell viability (Vero E6 [12]; 1000 nM) [%] | cell viability (Vero E6 [12]; 10000 nM) [%] | cell viability (U2OS [13]; 1 nM) [%] | cell viability (U2OS [13]; 10 nM) [%] | cell viability (U2OS [13]; 100 nM) [%] | cell viability (U2OS [13]; 1000 nM) [%] | cell viability (U2OS [13]; 10000 nM) [%] | cell viability (Caco-2 [14]; 1 nM) [%] | cell viability (Caco-2 [14]; 10 nM) [%] | cell viability (Caco-2 [14]; 100 nM) [%] | cell viability (Caco-2 [14]; 1000 nM) [%] | cell viability (Caco-2 [14]; 10000 nM) [%] | cell viability (HepG2 [15]; 1 nM) [%] | cell viability (HepG2 [15]; 10 nM) [%] | cell viability (HepG2 [15]; 100 nM) [%] | cell viability (HepG2 [15]; 1000 nM) [%] | cell viability (HepG2 [15]; 10000 nM) [%]
C[C@]12CC[C@@H]3c4ccc(OS(=O)(=O)O)cc4CC[C@H]3[C@@H]1CCC2=O [estropipate] | > 10 | > 10 | > 10 | > 10 | > 10 | 0 | 0 | 0 | 0 | 0 | 99.1 | 99.1 | 99.3 | 111 | 103 | 99.5 | 95.2 | 102 | 84.8 | 101 | 93.4 | 95.6 | 95 | 98 | 108 | 102 | 96.7 | 112 | 109 | 93.4 | 111 | 110 | 103 | 103 | 97.4
Cc1ccc(-c2ncc(Cl)cc2-c2ccc(S(C)(=O)=O)cc2)cn1 [etoricoxib] | > 10 | > 10 | > 10 | > 10 | > 10 | 0 | 0 | 0 | 0 | 0 | 94.7 | 99 | 90 | 104 | 101 | 96.4 | 101 | 96.5 | 99.2 | 94 | 98.1 | 103 | 97.2 | 98.5 | 94.2 | 95.3 | 108 | 92.5 | 99.9 | 104 | 101 | 90.5 | 99.5 | 104 | 98.6
CCOCCOc1ccccc1C(N)=O [etosalamide] | > 10 | > 10 | > 10 | > 10 | > 10 | 0 | 0 | 0 | 0 | 0 | 102 | 90.5 | 97.6 | 101 | 98.7 | 104 | 93.7 | 93.3 | 95.4 | 96.1 | 102 | 99.9 | 102 | 101 | 97.7 | 91.3 | 89.5 | 108 | 97.9 | 100 | 111 | 104 | 86.7 | 101 | 92.3
COc1ccc(-c2cc(=O)c3c(O)c(OC)c(O)cc3o2)cc1OC [eupatilin] | > 10 | > 10 | > 10 | > 10 | > 10 | 0.9 | 0 | 0 | 0 | 0 | 92.2 | 101 | 92.6 | 93.9 | 78.5 | 99.6 | 102 | 97.2 | 97.3 | 97.8 | 105 | 97.3 | 102 | 99.7 | 101 | 98.3 | 94.8 | 94.7 | 96.9 | 92.9 | 94.2 | 99 | 85.9 | 99.5 | 90.1
Cn1cc([S+](C)[O-])c(=O)c2ccc(F)cc21 (stereo not given) [flosequinan] | > 10 | > 10 | > 10 | > 10 | > 10 | 0 | 0 | 0 | 0 | 0.1 | 98.6 | 95.5 | 99.6 | 101 | 110 | 97.5 | 97.7 | 98.8 | 96.3 | 96.4 | 104 | 95.3 | 98.5 | 99 | 102 | 110 | 95.3 | 107 | 102 | 95.7 | 103 | 97.9 | 97 | 95.4 | 86.9
O=C(O)c1ccccc1Nc1cccc(C(F)(F)F)c1 [flufenamic-acid] | > 10 | > 10 | > 10 | > 10 | > 10 | 0 | 0 | 0 | 0 | 0 | 101 | 108 | 95.9 | 112 | 92.2 | 104 | 94.2 | 100 | 96 | 95.8 | 98.5 | 98.1 | 95.5 | 97.5 | 100 | 93.5 | 96.3 | 85.4 | 101 | 96.2 | 93.7 | 103 | 101 | 102 | 101
CCOC(=O)c1ncn2c1CN(C)C(=O)c1cc(F)ccc1-2 [flumazenil] | > 10 | > 10 | > 10 | > 10 | > 10 | 0 | 0 | 0 | 0 | 0 | 89.2 | 87.6 | 87.1 | 90.8 | 87 | 102 | 97.2 | 100 | 95.4 | 98.8 | 99.2 | 103 | 97.3 | 103 | 97.8 | 95.2 | 99.6 | 99.1 | 102 | 105 | 97.8 | 95 | 97.8 | 90.7 | 95.6
C[C@H]1NCc2cc(-c3ccc4c(=O)c(C(=O)O)cn(C5CC5)c4c3OC(F)F)ccc21 [garenoxacin] | > 10 | > 10 | > 10 | > 10 | > 10 | 0 | 0 | 0 | 0 | 0 | 107 | 92.3 | 105 | 106 | 104 | 85.3 | 97 | 85.4 | 91.7 | 104 | 102 | 96.3 | 99.2 | 98 | 99.7 | 96.1 | 91.2 | 102 | 95.9 | 98.6 | 95.2 | 97.4 | 92.3 | 109 | 99
COC(=O)C1=CO[C@@H](O)[C@@H]2C(CO)=CC[C@H]12 [genipin] | > 10 | > 10 | > 10 | > 10 | > 10 | 2.4 | 0 | 0 | 0.1 | 0 | 88 | 92.8 | 83.6 | 85.1 | 87 | 90.1 | 101 | 95.7 | 99.5 | 106 | 93.8 | 94.3 | 99.7 | 92.8 | 100 | 91.6 | 96.1 | 102 | 96.8 | 88.5 | 87.6 | 105 | 103 | 106 | 113
CC[n+]1c(-c2ccccc2)c2cc(N)ccc2c2ccc(N)cc21 [homidium] | 2.94 | > 10 | 1.74 | 0.984 | 0.679 | 4.4 | 0.1 | 5.3 | 10.7 | 8.1 | 103 | 98.9 | 93 | 97.7 | 26.4 | 92.8 | 100 | 90.5 | 94.5 | 85.3 | 97.1 | 96 | 98.4 | 87.8 | 39.2 | 95.9 | 93.2 | 87.2 | 55.4 | 4.5 | 107 | 101 | 88 | 64.5 | 35.7
CC(C)Cc1ccc(C(C)C(=O)O)cc1 (stereo not given) [ibuprofen] | > 10 | > 10 | > 10 | > 10 | > 10 | 0 | 0 | 0 | 0 | 0 | 105 ± 5.7 | 98.9 ± 6.4 | 93 ± 1.3 | 94.6 ± 8.3 | 102 ± 7.8 | 96.9 ± 0.57 | 96.9 ± 2.5 | 94.95 ± 0.071 | 92.2 ± 2.9 | 104.25 ± 0.071 | 99.7 ± 3.4 | 103 ± 4.4 | 100.6 ± 0.96 | 102 ± 2.5 | 105 ± 2.5 | 97.4 ± 5.4 | 98.1 ± 3.7 | 95.9 ± 2 | 103 ± 4.1 | 104 ± 3.2 | 110 ± 5.8 | 96.3 ± 1.8 | 104 ± 8.1 | 102 ± 5.4 | 108 ± 9.9
O=C(NC1CCN(CCc2c[nH]c3ccccc23)CC1)c1ccccc1 [indoramin] | > 10 | > 10 | > 10 | > 10 | > 10 | 0 | 0 | 0 | 0 | 0 | 90.4 | 92.8 | 103 | 101 | 107 | 96.7 | 94.4 | 98.7 | 99.7 | 102 | 95.3 | 99.3 | 97.5 | 104 | 100 | 89.4 | 98.2 | 101 | 101 | 99.5 | 100 | 92.9 | 105 | 98.9 | 95.9
O=C(O)CSc1nnc(Br)n1-c1ccc(C2CC2)c2ccccc12 [lesinurad] | > 10 | > 10 | > 10 | > 10 | > 10 | 0 | 0 | 0 | 0 | 0 | 99 | 101 | 106 | 95.5 | 102 | 99.4 | 100 | 99.9 | 102 | 99.5 | 99.6 | 103 | 95.2 | 95.9 | 96.3 | 98.4 | 90.9 | 91.4 | 94 | 99.7 | 98.8 | 102 | 99.4 | 84.8 | 99.7
Nc1nc(=O)c2c([nH]1)NCC(CNc1ccc(C(=O)N[C@@H](CCC(=O)O)C(=O)O)cc1)N2C=O (stereo not given in full) [leucovorin] | > 10 | > 10 | > 10 | > 10 | > 10 | 0 | 0 | 0 | 0 | 0 | 103 ± 15 | 96.9 ± 7.9 | 97.45 ± 0.78 | 99.3 ± 1.7 | 105 ± 7.5 | 101 ± 3.2 | 98.2 ± 5.1 | 104 ± 1.4 | 97.2 ± 2 | 101 ± 6.8 | 108 | 98.9 | 98.1 | 95.6 | 99.2 | 92 ± 1.3 | 94.5 ± 6.2 | 89.6 ± 2.3 | 100.3 ± 0.92 | 100 ± 2 | 116 | 96.5 | 100 | 108 | 97.5
